Measurements as given in patent publication US20090148850A1, “Methods for identifying modulators of P2RY14” (priority 2007, published 2009).

Assays:
Assay type in all cases: cell-based
[1] = test system: simian (chimpanzee) P2RY14; assay: CellKey System live cell functional assay, simian P2RY14; conditions: HEK cells expressing simian P2RY14 and Gqi5
Method: (§1) The Cellkey System™ (MDS Sciex), a novel, live cell, label-free, real-time technology, was used to examine P2RY14 activation following agonist stimulation. The CellKey System™ is based on cellular dielectric spectroscopy (CDS) and monitors changes in impedance of the applied electrical current through the cell monolayer upon receptor activation.
(§2) On the following day, growth medium was removed from the cell monolayer and replaced with 135 μl of HBSS pH 7.4 containing 20 mM Hepes for a 30 minutes pre-incubation period at room temperature. Baseline measurements were made for 5 minutes at 28° C. prior to ligand addition. For agonist assays, 15 μl of 10× agonist diluted in HBSS pH 7.4 containing 20 mM HEPES was added to the cell monolayer simultaneously using the 96 multichannel head from the CellKey™ System. Cellular response was monitored for 10 minutes to assess cellular response after ligand addition.

mouse P2RY14 [2] = molecular target: T1, mouse P2RY14 (Mus musculus, UniProt Q9ESG6); assay: FLIPR whole cell Ca2+ agonist assay, HEK cells expressing mouse P2RY14 and Gqi5
T1 construct: expressed in transfected cells
T1 sequence (Q9ESG6 1-338): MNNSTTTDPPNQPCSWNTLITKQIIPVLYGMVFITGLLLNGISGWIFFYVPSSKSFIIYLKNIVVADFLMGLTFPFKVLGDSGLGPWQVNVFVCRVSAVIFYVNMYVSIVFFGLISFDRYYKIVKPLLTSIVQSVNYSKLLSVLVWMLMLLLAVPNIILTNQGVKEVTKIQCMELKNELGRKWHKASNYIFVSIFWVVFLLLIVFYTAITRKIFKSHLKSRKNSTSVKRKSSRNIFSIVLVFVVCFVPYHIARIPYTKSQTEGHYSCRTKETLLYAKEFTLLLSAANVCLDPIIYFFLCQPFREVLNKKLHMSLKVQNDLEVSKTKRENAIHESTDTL
Text: Stable HEK clonal cell lines expressing P2RY14 and the chimeric G protein Gqi5 were constructed. The chimeric Gqi5 forces the coupling of P2RY14 through the Gq (calcium) pathway and allows for monitoring of calcium signaling using a calcium binding fluorescent dye and a FLIPR (fluorometric imaging plate reader, MDS Sciex). Vector pCEP4 comprising the chimeric Gqi5 was obtained from Molecular Devices, Sunnyvale, Calif. (Cat. No. RD-PGQI5).
The nucleic acid encoding the mouse P2RY14 was under the control of the CMV promoter.
Cells were grown in DMEM medium containing 25 mM HEPES, pH 7.4 and 10% FBS, 50 units/ml penicillin/50 μg/ml streptomycin, 2 mM glutamine and 1 mM sodium pyruvate at 37° C. in humidified air containing 5% CO2. Two days post-transfection, cells were grown under selection in the DMEM medium as indicated above and supplemented with 200 μg/ml Hygromycin B and 250 μg/ml geneticin.
Cells were incubated overnight at 37° C. and 5% CO2 to form a monolayer. On the following day, 30 μl of fluorescent no-wash dye was added to the cell monolayer and the plate was incubated for 60 minutes at 37° C., 5% CO2.
For agonist assays, 6.12 μl of 10× agonist solution was added to the cell/dye incubation and Ca^2+ signaling was monitored by FLIPR. For antagonist assays, 250 nl of compound in 100% DMSO was added to cell/dye mixture; following a 20 minute incubation at room temperature, 6.12 μl of 10× agonist solution at EC80 in HBSS containing 20 mM Hepes was added to cells and Ca^2+ signaling was monitored by FLIPR. Quantitation of the % stimulation or inhibition of Ca^2+ signaling by agonist or antagonist, respectively, was calculated using the Max-Min fluorescent signal detected.

P2RY14 = molecular target: T2, P2RY14 (Homo sapiens, UniProt Q15391); assay: CellKey System live cell functional assay, human P2RY14; set-up: expressed in transfected cells; conditions: HEK cells expressing human P2RY14 and Gqi5
T2 sequence (Q15391 1-338): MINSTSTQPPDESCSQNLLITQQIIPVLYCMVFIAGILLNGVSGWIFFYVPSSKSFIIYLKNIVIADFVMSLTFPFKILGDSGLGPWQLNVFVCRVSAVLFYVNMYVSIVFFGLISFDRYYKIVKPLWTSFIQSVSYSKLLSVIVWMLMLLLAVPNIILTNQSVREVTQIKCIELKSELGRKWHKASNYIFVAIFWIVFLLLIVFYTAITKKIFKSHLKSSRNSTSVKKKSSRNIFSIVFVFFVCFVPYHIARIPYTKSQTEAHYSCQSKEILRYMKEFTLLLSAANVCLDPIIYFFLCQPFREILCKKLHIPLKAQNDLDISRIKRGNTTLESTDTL
Method: as §1, §2

[3] = test system: HEK cells not expressing P2RY14; assay: FLIPR Ca2+ release in HEK cells not expressing P2RY14 (specificity)
mouse P2RY14 [4] = molecular target: T1, mouse P2RY14; assay: CellKey System live cell functional assay, mouse P2RY14; conditions: HEK cells expressing mouse P2RY14 and Gqi5
Method: as §1, §2

O=c1ccn([C@@H]2O[C@H](COP(=O)(O)O)[C@@H](O)[C@H]2O)c(=O)[nH]1 [UMP]
P2RY14 signaling (impedance, CellKey) [1]: mediated signaling | activation of P2RY14 (Ca2+ signaling) (mouse P2RY14 [2]): activated | P2RY14 signaling (impedance, CellKey) (P2RY14): mediated signaling | Ca2+ release in cells not expressing P2RY14 [3]: do not stimulate Ca^2+ release | P2RY14 signaling (impedance, CellKey) (mouse P2RY14 [4]): mediated signaling
